From patent US20250003952A1, “SENOLYTIC DRUG SCREENING METHOD AND SENOLYTIC DRUG” (KYOTO UNIVERSITY, priority 2021, published 2025)

Columns and labels:
PGAM-Chk1 binding [1] = biological target: T1, PGAM-Chk1 binding (Homo sapiens, UniProt O14757+P18669); assay: Nano-Bit PGAM-Chk1 binding in young and etoposide-induced senescent IMR90 cells; assay type: cell-based; settings: etoposide-induced senescent IMR90 cells; 20 μM or 40 μM for 48 hours
T1 construct: expressed in transfected cells
Method: In addition, PGAM and Chk1 kinase genes tagged with Nano-Bit tags were introduced into IMR90 cells to prepare a cell line capable of stable expression Young cells (within 1 month of continuous culture) of the IMR90 cells were treated with 100 uM etoposide for 48 hours to induce cellular senescence.
T1 sequence (P18669 whole entry, one chain of several): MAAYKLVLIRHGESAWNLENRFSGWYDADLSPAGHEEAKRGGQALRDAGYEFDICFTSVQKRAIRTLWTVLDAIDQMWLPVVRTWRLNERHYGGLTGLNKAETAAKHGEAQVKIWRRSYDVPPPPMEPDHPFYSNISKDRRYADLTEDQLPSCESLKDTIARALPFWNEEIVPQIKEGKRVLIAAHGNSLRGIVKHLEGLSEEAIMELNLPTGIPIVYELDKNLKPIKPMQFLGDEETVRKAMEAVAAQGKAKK

HIF-2α = HIF-2α protein (Western blot) and mRNA expression in IMR90 cells; assay type: cell-based, human
Description: As a result, it was observed that the HIF-2α protein decreased in the nutlin 3b-treated group and the BI-D1870-treated group (upper diagram and lower diagram in FIG. 22).
An oncogenic Ras was introduced into young cells (within 1 month of continuous culture) of IMR90 cells to induce senescent cells (OIS). […] It is known that ubiquitination is induced by phosphorylation in the vicinity of a ubiquitination site (Hagai et al., 2012). The consensus sequences (K/R-K/R-x-x-S/T) for phosphorylation by Chk1 located at the N-terminus of HIF-2α were conserved, and these were named Motif1 (including Ser12 residues) and Motif2 (including Ser19 residues) (FIG. 40, SEQ ID NOs: 77 to 81).

PGAM-Chk1 binding [2] = biological target: T2, PGAM-Chk1 binding (Homo sapiens, UniProt O14757+P18669); assay: PGAM-Chk1 binding by anti-Chk1 immunoprecipitation and anti-PGAM Western blotting in Ras-induced senescent IMR90 cells; assay type: cell-based; settings: 20 μM or 40 μM for 48 hours, then MG132 6 hours
T2 construct: endogenous in cells; host or cells: IMR90 human primary fibroblasts made senescent by retroviral oncogenic Ras
T2 sequence (P18669 2-254 limits assumed): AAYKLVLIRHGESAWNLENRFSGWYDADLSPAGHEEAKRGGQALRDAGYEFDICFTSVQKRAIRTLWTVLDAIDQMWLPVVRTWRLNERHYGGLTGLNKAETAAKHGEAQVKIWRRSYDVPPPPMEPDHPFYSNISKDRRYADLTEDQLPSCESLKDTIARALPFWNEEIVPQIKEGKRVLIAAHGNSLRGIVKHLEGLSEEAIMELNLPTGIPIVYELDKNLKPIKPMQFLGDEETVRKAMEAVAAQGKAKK
T2 sequence (O14757 1-476): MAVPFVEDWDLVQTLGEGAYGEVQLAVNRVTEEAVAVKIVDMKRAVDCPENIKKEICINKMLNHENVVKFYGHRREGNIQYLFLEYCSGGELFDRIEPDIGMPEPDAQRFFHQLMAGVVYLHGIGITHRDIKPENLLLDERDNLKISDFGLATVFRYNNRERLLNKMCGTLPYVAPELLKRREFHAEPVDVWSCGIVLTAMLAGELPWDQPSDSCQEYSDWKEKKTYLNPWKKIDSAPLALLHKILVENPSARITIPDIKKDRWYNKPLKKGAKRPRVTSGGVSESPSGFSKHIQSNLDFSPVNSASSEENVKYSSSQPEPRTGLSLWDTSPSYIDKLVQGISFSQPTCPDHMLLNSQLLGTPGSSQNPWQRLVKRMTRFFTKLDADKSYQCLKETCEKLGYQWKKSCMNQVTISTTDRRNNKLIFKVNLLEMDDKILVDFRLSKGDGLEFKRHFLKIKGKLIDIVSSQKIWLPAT
Method: Human primary fibroblasts, IMR90 cells, were obtained from the JCRB Cell Bank. An oncogenic Ras mutation was retrovirally introduced into young cells (within 1 month of continuous culture) of the IMR90 cells to induce cellular senescence. […] After that, these cells were treated with MG132 for 6 hours, and cell lysates were prepared. The obtained cell lysates were immunoprecipitated with an anti-Chk1 antibody. The resulting immunoprecipitate was used for Western blotting with an anti-PGAM antibody to evaluate PGAM-Chk1 binding.
Next, in the same manner as above, IMR90 cells were used to prepare stress-induced senescent cells by introducing an oncogenic mutated Ras gene. The senescent cells were transfected with an RSK1 siRNA (SEQ ID NO: 7) or a control to knock down RSK1. The resulting cells were collected, and proteins were extracted. The resulting protein extract was immunoprecipitated with an anti-Chk1 antibody. The resulting immunoprecipitate was used for Western blotting with an anti-PGAM antibody to evaluate PGAM-Chk1 binding.

In the case of `COc1ccc(C2=N[C@H](c3ccc(Cl)cc3)[C@H](c3ccc(Cl)cc3)N2C(=O)N2CCNC(=O)C2)c(OC(C)C)c1` [nutlin 3b], the “potentiation of PGAM-Chk1 binding (intracellular luminescence signals of Nano-Bit)” value (PGAM-Chk1 binding [1]) is reported as “suppressed by the nutlin 3b treatment in a dose-dependent manner”, the HIF-2α protein expression (HIF-2α; senescent (OIS) IMR90 cells) is reported as “suppressed” and the “influence on HIF-2α mRNA” value (HIF-2α; senescent (OIS) IMR90 cells) is reported as “relatively small”. For the same compound, the HIF-2α protein (HIF-2α; young and senescent cells, different concentrations for 96 hours) was “decreased” and the “PGAM-Chk1 binding (interaction)” value (PGAM-Chk1 binding [2]) was “inhibit PGAM-Chk1 interaction to the same extent”.
